Among the data in ChEMBL document CHEMBL1201862, “PubChem BioAssay data set” (2004) are IC50, AC50 and EC50 values, retold here.

Active and inactive are the calls of the source.

In assay [1] the target is T1, Small ubiquitin-related modifier 1 (Homo sapiens, UniProt P63165). The assay can be described thus: inhibitors of SUMO1 peptide binding, dose response, biochemical, fluorescence polarization, uHTS hits (AID 624382). Type of assay: functional. The note with it: read-out: IC50_Mean. For orientation: Fluorescence polarisation rises when a labelled molecule tumbles more slowly, as on binding a larger partner.

Assay [2] has as its target T1, Small ubiquitin-related modifier 1. The experiment in a line: inhibitors of SUMO1 partner interactions, dose response, biochemical, FRET (AID 624383). Type of assay: functional. Conditions: read-out: IC50_Mean.
The target in assay [3] is T2, Replicative DNA helicase DnaB (Mycobacterium tuberculosis, UniProt P9WMR3).
T2 sequence (P9WMR3 whole entry): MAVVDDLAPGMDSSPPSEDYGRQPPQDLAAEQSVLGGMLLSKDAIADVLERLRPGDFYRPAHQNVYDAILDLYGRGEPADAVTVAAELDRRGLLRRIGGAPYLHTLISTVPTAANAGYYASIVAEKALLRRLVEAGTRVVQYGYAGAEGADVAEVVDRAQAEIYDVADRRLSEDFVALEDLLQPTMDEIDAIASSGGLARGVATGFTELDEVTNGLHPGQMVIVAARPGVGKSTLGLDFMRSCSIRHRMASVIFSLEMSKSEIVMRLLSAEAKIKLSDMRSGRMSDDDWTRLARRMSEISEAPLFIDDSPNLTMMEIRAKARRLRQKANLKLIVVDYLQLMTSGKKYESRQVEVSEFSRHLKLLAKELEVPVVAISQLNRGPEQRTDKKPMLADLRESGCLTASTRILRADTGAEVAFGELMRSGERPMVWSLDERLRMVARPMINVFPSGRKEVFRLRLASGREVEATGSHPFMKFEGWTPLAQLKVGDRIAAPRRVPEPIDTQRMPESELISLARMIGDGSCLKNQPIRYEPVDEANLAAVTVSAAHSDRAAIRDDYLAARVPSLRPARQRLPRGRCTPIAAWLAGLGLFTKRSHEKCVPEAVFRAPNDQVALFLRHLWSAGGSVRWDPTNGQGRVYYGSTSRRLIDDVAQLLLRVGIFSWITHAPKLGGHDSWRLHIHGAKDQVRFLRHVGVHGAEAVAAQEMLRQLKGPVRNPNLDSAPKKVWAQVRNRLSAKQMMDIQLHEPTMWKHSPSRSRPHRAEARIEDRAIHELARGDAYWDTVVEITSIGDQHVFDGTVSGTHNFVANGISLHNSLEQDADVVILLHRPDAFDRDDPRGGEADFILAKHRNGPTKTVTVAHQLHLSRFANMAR
The experiment in a line: DnaB intein splicing inhibitors, dose response, biochemical, cell-free fluorescence (AID 449749). Type of assay: functional.

In another assay the target is T3, Protein RecA (Mycobacterium tuberculosis, UniProt P9WHJ3).
T3 sequence (P9WHJ3 whole entry): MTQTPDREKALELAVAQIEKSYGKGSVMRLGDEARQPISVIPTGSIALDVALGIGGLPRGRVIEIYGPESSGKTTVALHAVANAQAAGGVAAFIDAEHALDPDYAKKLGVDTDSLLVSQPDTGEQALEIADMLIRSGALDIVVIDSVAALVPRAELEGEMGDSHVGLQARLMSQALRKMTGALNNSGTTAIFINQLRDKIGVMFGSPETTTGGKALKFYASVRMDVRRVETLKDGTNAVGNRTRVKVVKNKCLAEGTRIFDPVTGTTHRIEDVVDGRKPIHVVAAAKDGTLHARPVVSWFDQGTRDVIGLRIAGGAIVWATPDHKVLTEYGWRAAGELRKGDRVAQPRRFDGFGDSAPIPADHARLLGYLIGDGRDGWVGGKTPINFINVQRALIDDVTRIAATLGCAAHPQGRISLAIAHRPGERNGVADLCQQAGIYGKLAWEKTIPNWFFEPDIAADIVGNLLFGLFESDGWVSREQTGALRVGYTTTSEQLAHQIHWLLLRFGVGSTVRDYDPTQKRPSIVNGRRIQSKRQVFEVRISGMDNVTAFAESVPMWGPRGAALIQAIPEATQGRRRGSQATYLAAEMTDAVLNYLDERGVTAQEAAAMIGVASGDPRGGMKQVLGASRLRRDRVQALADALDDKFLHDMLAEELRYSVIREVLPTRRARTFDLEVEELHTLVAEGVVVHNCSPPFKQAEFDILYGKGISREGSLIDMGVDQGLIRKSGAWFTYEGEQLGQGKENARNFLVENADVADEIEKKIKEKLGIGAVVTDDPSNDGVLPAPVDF
The assay can be described thus: Fluorescence Cell-Free Homogeneous Dose Retest to Identify Inhibitors of RecA-Intein Splicing Activity. [Related pubchem assays (depositor defined):AID2097, AID2223, AID489010, AID492950]. It is filed as functional.

For another assay, the target named is T4, Caspase-6 (Homo sapiens, UniProt P55212).
T4 sequence (P55212 whole entry): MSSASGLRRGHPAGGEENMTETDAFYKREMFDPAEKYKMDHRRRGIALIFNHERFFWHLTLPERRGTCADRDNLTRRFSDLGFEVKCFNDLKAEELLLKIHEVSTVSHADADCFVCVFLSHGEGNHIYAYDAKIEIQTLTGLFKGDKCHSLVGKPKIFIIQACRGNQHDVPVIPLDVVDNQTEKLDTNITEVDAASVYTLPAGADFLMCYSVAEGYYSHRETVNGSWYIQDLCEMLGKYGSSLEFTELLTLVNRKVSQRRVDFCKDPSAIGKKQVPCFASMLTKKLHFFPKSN
The experiment in a line: human caspase-6 inhibitors, dose response, biochemical, VEID-R110 fluorescence, cherry-pick (AID 720632).

The target of assay [4] is T5, Carboxy-terminal domain RNA polymerase II polypeptide A small phosphatase 1 (Homo sapiens, UniProt Q9GZU7).
T5 sequence (Q9GZU7 whole entry): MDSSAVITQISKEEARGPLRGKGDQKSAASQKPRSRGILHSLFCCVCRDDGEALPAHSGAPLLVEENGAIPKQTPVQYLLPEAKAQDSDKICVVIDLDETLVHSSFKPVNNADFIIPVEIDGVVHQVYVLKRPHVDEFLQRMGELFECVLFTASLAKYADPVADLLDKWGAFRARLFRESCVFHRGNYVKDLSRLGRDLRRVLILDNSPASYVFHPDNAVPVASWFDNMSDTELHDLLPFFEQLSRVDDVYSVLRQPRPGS
The experiment in a line: inhibitors of CTDSP1, concentration-response testing, biochemical assay, absorbance-based, actives from ultra-high-throughput screening (AID 540297). Type of assay: functional.

The target of assay [5] is T6, Sentrin-specific protease 8 (Homo sapiens, UniProt Q96LD8).
T6 sequence (Q96LD8 whole entry): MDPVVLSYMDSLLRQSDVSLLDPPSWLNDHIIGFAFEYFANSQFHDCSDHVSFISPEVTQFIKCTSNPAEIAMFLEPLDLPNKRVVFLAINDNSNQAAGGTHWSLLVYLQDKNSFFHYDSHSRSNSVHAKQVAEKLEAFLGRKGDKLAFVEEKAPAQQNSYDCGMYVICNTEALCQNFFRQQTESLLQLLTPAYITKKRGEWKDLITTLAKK
Type of assay: functional.

Assay [6] addresses T6, Sentrin-specific protease 8. It is filed as functional. The source holds these as a separate data set.
In the next assay the target is Beta-galactosidase (Escherichia coli, UniProt Q8VNN2). The assay can be described thus: Dose response counterscreen for EBI2 assay utilizing the enzyme, b-galactosidase. It is filed as functional. Background: A counterscreen serves to expose hits that act by an unwanted route or on another target.
In assay [7] the target is T7, Corticotropin-releasing factor receptor 2/Corticotropin-releasing factor-binding protein (Homo sapiens, UniProt P24387+Q13324).
T7 sequence (Q13324 whole entry): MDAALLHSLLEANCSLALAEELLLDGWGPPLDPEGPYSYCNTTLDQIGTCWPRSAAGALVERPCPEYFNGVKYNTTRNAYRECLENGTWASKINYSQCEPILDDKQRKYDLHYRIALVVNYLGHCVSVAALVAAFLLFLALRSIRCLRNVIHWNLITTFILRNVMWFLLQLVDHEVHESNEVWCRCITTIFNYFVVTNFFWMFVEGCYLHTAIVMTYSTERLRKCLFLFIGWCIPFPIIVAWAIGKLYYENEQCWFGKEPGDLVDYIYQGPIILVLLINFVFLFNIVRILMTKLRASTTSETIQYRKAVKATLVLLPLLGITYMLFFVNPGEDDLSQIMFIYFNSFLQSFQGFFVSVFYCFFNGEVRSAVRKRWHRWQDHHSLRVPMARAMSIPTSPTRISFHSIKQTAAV
T7 sequence (P24387 whole entry): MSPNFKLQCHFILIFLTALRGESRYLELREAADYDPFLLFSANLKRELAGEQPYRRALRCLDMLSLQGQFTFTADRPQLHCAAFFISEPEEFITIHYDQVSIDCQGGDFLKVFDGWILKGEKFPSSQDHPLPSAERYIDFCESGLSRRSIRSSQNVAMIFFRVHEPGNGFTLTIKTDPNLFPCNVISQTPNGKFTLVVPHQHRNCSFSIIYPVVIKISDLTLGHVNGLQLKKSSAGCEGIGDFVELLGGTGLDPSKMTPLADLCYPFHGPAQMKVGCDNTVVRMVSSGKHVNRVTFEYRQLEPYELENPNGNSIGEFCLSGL
The experiment in a line: Dose Response confirmation of uHTS hits for small molecule antagonists of the CRF-binding protein and CRF-R2 receptor complex. Conditions: read-out: IC50_Mean. It is filed as functional.

Assay [8] addresses T7, Corticotropin-releasing factor receptor 2/Corticotropin-releasing factor-binding protein. The assay can be described thus: activators of CRF receptor 2 with binding protein – uHTS hits, confirmation (AID 602473). Type of assay: functional. The note with it: read-out: EC50_Mean.
Assay [9] can be described thus: Counterscreen for activators of the function of SWI/SNF related, matrix associated, actin dependent regulator of chromatin, subfamily a, member 2 (SMARCA2, BRM): Luminescence-based cell-based high throughput dose response assay to identify non-selective compounds using the VP16 reporter assay. Type of assay: functional.
Assay [10] has as its target T8, Histone-lysine N-methyltransferase NSD2 (Homo sapiens, UniProt O96028).
T8 sequence (O96028 whole entry): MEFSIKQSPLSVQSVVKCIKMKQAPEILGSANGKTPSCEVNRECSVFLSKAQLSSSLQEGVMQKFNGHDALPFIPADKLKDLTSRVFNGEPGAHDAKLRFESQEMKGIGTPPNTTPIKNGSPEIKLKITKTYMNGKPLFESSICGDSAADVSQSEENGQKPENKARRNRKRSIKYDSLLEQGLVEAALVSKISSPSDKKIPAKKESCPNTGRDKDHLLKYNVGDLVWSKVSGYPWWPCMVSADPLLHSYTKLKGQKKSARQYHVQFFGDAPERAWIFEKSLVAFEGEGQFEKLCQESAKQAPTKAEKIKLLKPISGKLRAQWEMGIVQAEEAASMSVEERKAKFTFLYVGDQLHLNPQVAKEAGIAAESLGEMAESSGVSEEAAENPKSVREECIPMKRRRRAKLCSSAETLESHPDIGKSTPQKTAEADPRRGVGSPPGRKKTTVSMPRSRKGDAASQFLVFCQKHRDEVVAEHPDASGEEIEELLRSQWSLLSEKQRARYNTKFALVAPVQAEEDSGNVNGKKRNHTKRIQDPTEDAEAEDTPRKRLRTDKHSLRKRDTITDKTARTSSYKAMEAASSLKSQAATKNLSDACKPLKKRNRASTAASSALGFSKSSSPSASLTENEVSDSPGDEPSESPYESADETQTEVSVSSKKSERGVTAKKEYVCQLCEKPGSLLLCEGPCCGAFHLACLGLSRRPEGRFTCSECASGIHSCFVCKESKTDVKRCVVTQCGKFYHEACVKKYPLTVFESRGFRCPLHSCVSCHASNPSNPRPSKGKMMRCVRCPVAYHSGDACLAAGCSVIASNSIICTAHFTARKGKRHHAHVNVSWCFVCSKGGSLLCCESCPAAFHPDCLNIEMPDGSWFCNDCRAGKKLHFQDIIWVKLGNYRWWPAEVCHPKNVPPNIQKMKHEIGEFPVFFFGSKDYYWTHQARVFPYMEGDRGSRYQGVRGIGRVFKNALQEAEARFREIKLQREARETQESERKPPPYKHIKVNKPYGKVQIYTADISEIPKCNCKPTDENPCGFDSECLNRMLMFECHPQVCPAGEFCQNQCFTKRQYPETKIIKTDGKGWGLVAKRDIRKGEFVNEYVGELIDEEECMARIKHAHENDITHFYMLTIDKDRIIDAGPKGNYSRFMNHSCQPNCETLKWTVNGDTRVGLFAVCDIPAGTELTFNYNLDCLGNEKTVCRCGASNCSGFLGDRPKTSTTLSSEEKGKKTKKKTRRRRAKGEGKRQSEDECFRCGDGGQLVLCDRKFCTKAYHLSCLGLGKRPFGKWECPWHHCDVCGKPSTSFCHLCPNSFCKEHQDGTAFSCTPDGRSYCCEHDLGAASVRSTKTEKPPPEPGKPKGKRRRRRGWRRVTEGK
It is filed as biochemical.

The target in assay [11] is SWI/SNF-related matrix-associated actin-dependent regulator of chromatin subfamily A member 2 (Homo sapiens, UniProt P51531). The experiment in a line: Luminescence-based cell-based high throughput dose response assay to identify activators of the function of SWI/SNF related, matrix associated, actin dependent regulator of chromatin, subfamily a, member 2 (SMARCA2, BRM). It is filed as functional.
Sequence of SWI/SNF-related matrix-associated actin-dependent regulator of chromatin subfamily A member 2 (P51531 whole entry): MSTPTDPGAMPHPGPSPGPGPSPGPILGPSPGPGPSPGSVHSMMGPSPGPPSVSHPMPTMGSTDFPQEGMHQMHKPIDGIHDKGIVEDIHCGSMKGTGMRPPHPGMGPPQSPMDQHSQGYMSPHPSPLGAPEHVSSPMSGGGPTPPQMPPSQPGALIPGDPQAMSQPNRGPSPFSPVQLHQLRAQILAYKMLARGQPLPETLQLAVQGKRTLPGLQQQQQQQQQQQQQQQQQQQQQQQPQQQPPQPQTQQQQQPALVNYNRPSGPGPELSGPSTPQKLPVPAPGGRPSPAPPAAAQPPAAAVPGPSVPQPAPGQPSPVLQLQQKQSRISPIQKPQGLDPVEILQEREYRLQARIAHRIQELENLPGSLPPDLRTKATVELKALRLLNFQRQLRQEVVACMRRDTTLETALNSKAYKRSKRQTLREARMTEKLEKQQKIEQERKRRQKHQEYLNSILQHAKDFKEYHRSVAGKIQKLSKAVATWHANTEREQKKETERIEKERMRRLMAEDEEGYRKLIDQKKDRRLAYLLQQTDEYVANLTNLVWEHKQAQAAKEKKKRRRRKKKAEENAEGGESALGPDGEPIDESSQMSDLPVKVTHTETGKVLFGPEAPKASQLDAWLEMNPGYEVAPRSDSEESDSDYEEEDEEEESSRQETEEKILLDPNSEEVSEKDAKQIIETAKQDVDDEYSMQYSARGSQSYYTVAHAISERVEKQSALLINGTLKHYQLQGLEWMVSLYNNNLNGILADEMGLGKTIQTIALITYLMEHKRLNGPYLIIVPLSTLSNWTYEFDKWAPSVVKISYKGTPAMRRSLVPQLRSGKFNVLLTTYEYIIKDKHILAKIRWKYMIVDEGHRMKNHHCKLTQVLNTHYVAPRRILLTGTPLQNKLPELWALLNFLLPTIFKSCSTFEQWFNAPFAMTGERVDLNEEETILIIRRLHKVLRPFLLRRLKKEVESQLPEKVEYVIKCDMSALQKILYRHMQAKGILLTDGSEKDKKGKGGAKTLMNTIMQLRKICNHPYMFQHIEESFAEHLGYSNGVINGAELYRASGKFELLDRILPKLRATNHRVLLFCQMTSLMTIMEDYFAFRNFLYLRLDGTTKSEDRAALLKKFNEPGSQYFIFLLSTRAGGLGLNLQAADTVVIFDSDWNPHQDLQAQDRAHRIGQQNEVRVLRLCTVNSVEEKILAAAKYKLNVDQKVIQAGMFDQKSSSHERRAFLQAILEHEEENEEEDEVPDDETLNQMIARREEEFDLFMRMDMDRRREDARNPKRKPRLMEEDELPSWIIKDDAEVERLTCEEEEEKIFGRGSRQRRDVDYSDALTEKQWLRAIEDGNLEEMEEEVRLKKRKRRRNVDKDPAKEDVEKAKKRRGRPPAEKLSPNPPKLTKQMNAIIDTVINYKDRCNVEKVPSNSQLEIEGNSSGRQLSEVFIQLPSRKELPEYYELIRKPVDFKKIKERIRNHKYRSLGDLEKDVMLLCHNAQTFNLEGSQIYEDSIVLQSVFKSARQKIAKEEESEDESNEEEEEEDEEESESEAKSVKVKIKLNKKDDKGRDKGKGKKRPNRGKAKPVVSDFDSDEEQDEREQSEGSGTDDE

Sequence of Beta-galactosidase (Q8VNN2 whole entry): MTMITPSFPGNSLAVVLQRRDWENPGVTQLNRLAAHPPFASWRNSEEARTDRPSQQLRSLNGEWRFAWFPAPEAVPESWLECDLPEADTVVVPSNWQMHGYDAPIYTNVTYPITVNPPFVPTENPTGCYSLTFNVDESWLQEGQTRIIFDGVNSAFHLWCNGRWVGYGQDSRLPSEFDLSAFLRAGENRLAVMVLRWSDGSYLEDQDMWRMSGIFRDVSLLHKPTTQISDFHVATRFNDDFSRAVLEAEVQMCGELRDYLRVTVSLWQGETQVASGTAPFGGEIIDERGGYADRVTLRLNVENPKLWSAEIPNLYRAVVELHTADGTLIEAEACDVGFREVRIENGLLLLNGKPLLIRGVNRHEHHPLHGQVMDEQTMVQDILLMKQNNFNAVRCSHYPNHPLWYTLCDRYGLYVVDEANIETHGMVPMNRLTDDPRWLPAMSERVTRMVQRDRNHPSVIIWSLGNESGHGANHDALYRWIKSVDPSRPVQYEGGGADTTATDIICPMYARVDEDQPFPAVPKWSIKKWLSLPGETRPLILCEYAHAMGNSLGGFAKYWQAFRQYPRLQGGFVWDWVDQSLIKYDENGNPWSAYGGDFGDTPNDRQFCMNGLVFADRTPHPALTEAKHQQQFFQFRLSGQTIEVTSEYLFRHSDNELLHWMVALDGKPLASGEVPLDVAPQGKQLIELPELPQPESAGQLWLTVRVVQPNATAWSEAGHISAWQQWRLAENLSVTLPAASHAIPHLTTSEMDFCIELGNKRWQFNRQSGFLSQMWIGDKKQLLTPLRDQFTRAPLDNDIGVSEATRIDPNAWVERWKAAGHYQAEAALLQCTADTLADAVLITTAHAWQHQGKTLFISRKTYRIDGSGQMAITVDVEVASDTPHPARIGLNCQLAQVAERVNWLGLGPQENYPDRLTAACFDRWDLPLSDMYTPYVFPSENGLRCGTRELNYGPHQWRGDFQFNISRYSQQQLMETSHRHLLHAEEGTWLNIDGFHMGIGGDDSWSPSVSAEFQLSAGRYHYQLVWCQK
T1 sequence (P63165 whole entry): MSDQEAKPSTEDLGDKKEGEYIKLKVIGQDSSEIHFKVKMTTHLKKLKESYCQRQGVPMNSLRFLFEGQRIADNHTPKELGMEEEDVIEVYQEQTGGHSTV

What is called AC50 is the concentration at which the activity in the assay is half-maximal. Turning to `CC1=NN(c2ccc(Cl)c(C(=O)O)c2)C(=O)C1`, the IC50 in [1] was > 66.6 µM (inactive); in [2] it was 9.17 µM (active); in assay [4], 8.96 µM (active). Moreover, the AC50 in assay [3] is 1.88 µM (active); on Caspase-6 it was 1.16 µM (active). For the same molecule, on Protein RecA, the EC50 was 2.15 µM (active).

For the molecule `O=C(COc1ccccc1)N1CCc2ccccc2C1`, the IC50 is 93.6 µM (inactive) in [5] and 23.7 µM (active) in assay [6].

In the case of `CCOC(=O)N1CCN(C(=O)/C=C/c2ccc(OC)cc2)CC1`, at Beta-galactosidase, the IC50 is > 80 µM (inactive).

As for `CC(=O)N1CCOc2ccc(S(=O)(=O)N3CCC(C(=O)NCc4ccc(C)cc4)CC3)cc21`, the IC50 in assay [7] was > 47.1 µM (inactive); at Beta-galactosidase, > 80 µM (inactive). Further, the EC50 in assay [8] was > 53 µM (inactive).

Regarding `O=[N+]([O-])c1ccc(N(CCO)CCO)c2c1no[n+]2[O-]`, the EC50 in [9] and in [11] was > 91.2 µM (inactive) throughout. Besides, in [10], the concentration at half-maximal activity (AC50) is 4.45 µM (active).

With `CC(C)CSc1nnc(-c2ccco2)n1C`, the EC50 in assay [9] and in assay [11] was > 91.2 µM (inactive) each time.
